Source: ChEMBL document CHEMBL1201862, “PubChem BioAssay data set” (2004)
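Assay format: 96-well plates, 48-hour exposure. Here, GI50 denotes the concentration required for 50% inhibition of growth.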 Activity calls are given as the source filed them. Cut-off read from the data, not from the text of the source: active = GI50 up to about 1.1 µM and inactive = higher.

Tests used:
Assay in all cases: DTP human tumour cell line panel, 48 h
[1] = system: 786-0
[2] = system: A498
[3] = system: DU-145
[4] = system: EKVX
[5] = system: HCT-116
[6] = system: HOP-62
[7] = system: HOP-92
[8] = system: KM12
[9] = system: LOX IMVI
[10] = system: MDA-MB-435
[11] = system: MDA-N
[12] = system: NCI/ADR-RES
[13] = system: OVCAR-5
[14] = system: OVCAR-8
[15] = system: RPMI-8226
[16] = system: SK-MEL-5
[17] = system: SK-OV-3
[18] = system: SNB-19
[19] = system: SNB-75
[20] = system: SW-620

Measured: GI50

CC(C)(C)COS(=O)OCC(C)(C)C
inactive: [1] > 100 µM | [2] > 100 µM | [3] > 100 µM | [4] > 100 µM | [5] > 100 µM | [6] > 100 µM | [7] > 100 µM | [8] > 100 µM | [9] > 100 µM | [10] > 100 µM | [11] > 100 µM | [12] > 100 µM | [13] > 100 µM | [14] > 100 µM | [15] > 100 µM | [16] > 100 µM | [17] > 100 µM | [18] > 100 µM | [19] > 100 µM | [20] > 100 µM

CC(=O)NC(CS)C(=O)O (stereo not given)
inactive: [1] 21600 µM | [2] 3970 µM | [3] 21400 µM | [4] 4670 µM | [5] 17600 µM | [6] 12800 µM | [7] 12500 µM | [8] 33300 µM | [9] > 100 µM | [10] 17800 µM | [11] > 100 µM | [12] 22600 µM | [13] 14500 µM | [14] 24700 µM | [15] 746 µM | [16] 14500 µM | [17] 44200 µM | [18] 16400 µM | [19] 10700 µM | [20] 11000 µM

O=C(NC(=O)c1c(F)cccc1F)Nc1cccc(Oc2ncc(Cl)cn2)c1
inactive: [1] 40 µM | [2] > 76.6 µM | [3] > 100 µM | [4] > 100 µM | [5] 8.79 µM | [6] 29.6 µM | [7] 16.6 µM | [8] 1.4 µM | [9] 29.3 µM | [10] 1.63 µM | [11] 1.56 µM | [12] > 23.3 µM | [13] > 100 µM | [14] 43 µM | [15] > 94.8 µM | [16] > 100 µM | [17] 19.3 µM | [18] 45.5 µM | [19] 19.5 µM | [20] 4.3 µM

CCN(CC)c1ccc(/C=C/C(=O)c2cc(C(C)(C)C)c(O)c(C(C)(C)C)c2)cc1
inactive: [1] 14.2 µM | [2] 31.3 µM | [3] 29 µM | [4] 4.13 µM | [5] 3.21 µM | [6] 27 µM | [7] > 100 µM | [8] 2.99 µM | [9] 5.78 µM | [10] 3.21 µM | [11] 3.14 µM | [12] 4.38 µM | [13] 5.26 µM | [14] 15.9 µM | [15] 4.94 µM | [16] 16.3 µM | [17] 28.2 µM | [18] 38 µM | [19] 4.9 µM | [20] 4.84 µM

CCOC(=O)CCC(NC(=O)c1ccc(Oc2nc3ccc(C(F)(F)F)cc3nc2-c2ccccc2)cc1)C(=O)OCC (stereo not given)
inactive: [1] 4.25 µM | [2] 16.4 µM | [3] > 100 µM | [4] 12.9 µM | [5] 25.6 µM | [6] 4.82 µM | [7] 18.9 µM | [8] 11.2 µM | [9] 28.6 µM | [10] > 100 µM | [11] > 100 µM | [12] 15.5 µM | [13] > 68.7 µM | [14] 9.06 µM | [15] > 100 µM | [16] 45.3 µM | [17] 15 µM | [18] 12.7 µM | [19] 9.46 µM | [20] > 100 µM

Cn1c2cn[nH]c(=O)c2c2ccc3ccccc3c21
inactive: [1] 7.62 µM | [2] 9.04 µM | [3] 59.3 µM | [4] 3.6 µM | [5] 29 µM | [6] 13.1 µM | [7] 10.6 µM | [8] > 100 µM | [9] 21.9 µM | [10] 69.7 µM | [11] > 100 µM | [12] 84.1 µM | [13] > 100 µM | [14] 41.6 µM | [15] 60.3 µM | [16] 31.5 µM | [17] 28.8 µM | [18] 26.5 µM | [19] 16.1 µM | [20] 52.6 µM

CCOC(=O)C1=C(C)OC(=O)[C@@]2(OC)C=C(Cl)[C@@]12C
inactive: [1] > 100 µM | [2] > 100 µM | [3] > 100 µM | [4] > 100 µM | [5] > 100 µM | [6] > 100 µM | [7] > 100 µM | [8] > 100 µM | [9] > 100 µM | [10] > 100 µM | [11] > 100 µM | [12] > 100 µM | [13] > 100 µM | [14] > 100 µM | [15] > 100 µM | [16] > 100 µM | [17] > 100 µM | [18] > 100 µM | [19] > 100 µM | [20] > 100 µM

COC(=O)[C@H]1[C@H](C(=O)OC)[C@@H](C)c2c(ccc3c2[nH]c2ccccc23)[C@@H]1C
inactive: [1] 21.2 µM | [2] > 100 µM | [3] 41.5 µM | [4] 69.8 µM | [5] 34.6 µM | [6] 35.6 µM | [7] 37.9 µM | [8] 32.9 µM | [9] 22.6 µM | [10] > 100 µM | [11] 90.8 µM | [12] > 100 µM | [13] > 100 µM | [14] 46.3 µM | [15] 11.8 µM | [16] > 100 µM | [17] 92.9 µM | [18] 56.4 µM | [19] 19.7 µM | [20] 95.1 µM

S=C(Nc1cccc(C2(N3CCCCC3)CCCCC2)c1)Nc1cccc(C2(N3CCCCC3)CCCCC2)c1
inactive: [1] 15.2 µM | [2] 18.9 µM | [3] 27.3 µM | [4] 38 µM | [5] 20.8 µM | [6] 39.2 µM | [7] 10.3 µM | [8] 16 µM | [9] 12.7 µM | [10] 16 µM | [11] 17.6 µM | [12] > 100 µM | [13] 66.4 µM | [14] 24.3 µM | [15] 10.6 µM | [16] 17.7 µM | [17] > 100 µM | [18] 36.6 µM | [19] 12.9 µM | [20] 37.8 µM

[O-][n+]1c2cccc(O)c2[n+]([O-])c2cccc(O)c21
inactive: [1] 30.2 µM | [2] > 100 µM | [3] > 100 µM | [4] 23.8 µM | [5] 21.4 µM | [6] 27.9 µM | [7] 22.7 µM | [8] 37.5 µM | [9] 56.8 µM | [10] > 100 µM | [11] > 100 µM | [12] 70.8 µM | [13] > 100 µM | [14] 25.9 µM | [15] 18.6 µM | [16] 53.5 µM | [17] 45.7 µM | [18] 92 µM | [19] > 100 µM | [20] 47.9 µM

O=C1c2ccccc2C(=O)N1CCCCNOCCCN1C(=O)c2ccccc2C1=O
inactive: [1] > 100 µM | [2] > 100 µM | [3] > 100 µM | [4] > 100 µM | [5] > 100 µM | [6] > 100 µM | [7] > 100 µM | [8] > 100 µM | [9] > 100 µM | [10] > 100 µM | [11] > 100 µM | [12] > 100 µM | [13] > 100 µM | [14] > 100 µM | [15] > 100 µM | [16] > 100 µM | [17] > 100 µM | [18] > 100 µM | [19] > 100 µM | [20] > 100 µM

NCCCCNC1(c2cc3ccccc3s2)CCCCC1
inactive: [1] 1.55 µM | [2] 2.16 µM | [3] 11.1 µM | [4] 14.6 µM | [5] 3.65 µM | [6] 6.03 µM | [7] 5.32 µM | [8] 3.2 µM | [9] 1.71 µM | [10] 1.82 µM | [11] 1.71 µM | [12] 6.9 µM | [13] 3.77 µM | [14] 7.06 µM | [15] 1.84 µM | [16] 1.74 µM | [17] 14.5 µM | [18] 7.45 µM | [19] 3.27 µM | [20] 3.54 µM

CCOc1cc2oc(C)cc(=O)c2c(OC)c1/C=N/c1ccc(Cn2c(C)nc3ccccc32)cc1
inactive: [1] > 100 µM | [2] > 100 µM | [3] > 100 µM | [4] > 100 µM | [5] > 100 µM | [6] > 100 µM | [7] > 100 µM | [8] > 100 µM | [9] > 100 µM | [10] > 100 µM | [11] > 100 µM | [12] > 100 µM | [13] > 100 µM | [14] > 100 µM | [15] > 100 µM | [16] > 100 µM | [17] > 100 µM | [18] > 100 µM | [19] > 100 µM | [20] > 100 µM

N=C(N)N/N=C/c1c(-c2ccc(Cl)cc2)nc2sccn12
inactive: [1] 1.61 µM | [2] 3.11 µM | [3] 3.34 µM | [4] 14.6 µM | [5] 1.6 µM | [6] 1.79 µM | [7] 2.1 µM | [8] 1.96 µM | [9] 1.65 µM | [10] 1.74 µM | [11] 1.79 µM | [12] 5.4 µM | [13] 2.3 µM | [14] 1.95 µM | [15] 2.61 µM | [16] 1.65 µM | [17] 2.66 µM | [18] 4.09 µM | [19] 1.77 µM | [20] 1.55 µM
